Data reported in article PMC10600239, “Selective MCL-1 inhibitor ABBV-467 is efficacious in tumor models but is associated with cardiac troponin increases in patients” (Communications Medicine, 2023).
“And” between values parts separate entries of the source, which are not always exact repeats. Equal entries are not always repeated.

Test system: AMO-1 xenografts
Assay: AMO-1 xenograft efficacy (tumor volume, body weight); on Mortality Observation Day 34: key: EUTV: Euthanized: tumor volume; on Mortality Observation Day 36: key: EUTV: Euthanized: tumor volume; on Mortality Observation Day 68, individual animal: key: EUTV: Euthanized: tumor volume
Format: in vivo, mouse
Experimental: All animal studies were conducted in accordance with the guidelines approved by the Institutional Animal Care and Use Committees of AbbVie. The research protocol was approved by In Vivo Pharmacology at AbbVie prior to study initiation but was not publicly registered or disclosed. Female C.B-17 SCID-beige mice (AMO-1, OPM-2, NCI-H929, and OCI-AML2 xenografts) and female NSG mice (MV4-11-Red.Fluc systemic) were purchased from Charles River Laboratories (Wilmington, MA). Animals were housed in a light cycle-controlled room with HEPA filtration at 22 °C. Animals had nesting and climbing cage topper as the primary environmental enrichment. Animals were inoculated subcutaneously in the right flank with 5 × 10^6 (AMO-1, OPM-2, NCI-H929, and OCI-AML2) or intravenous (IV) with 5 × 10^6 (MV4-11-Red.Fluc). The inoculation volume (0.2 mL) comprised a 50:50 mixture of cells in growth media and Matrigel (BD Biosciences) for subcutaneous injections and 100% phosphate-buffered saline for IV administration. All cell lines used in this publication were authenticated using IDEXX for STR profiling as well as their IMPACT and human IMPACT panels for pathogen screening. Electronic calipers were used to measure the length and width of each tumor 2 to 3 times per week. Tumor volume was estimated by applying the following equation: volume = length × width^2/2. All groups remained blinded during measurements and dosing; only veterinary staff were aware of group identity. When tumors reached approximately 200 mm^3, mice were randomized by match and distributed into treatment and control groups. All xenograft trials were conducted using 5 to 10 mice per group, and all mice were ear tagged and monitored individually throughout the studies. […] Tumor burden in the systemic MV4-11-Red.Fluc experiment was measured using an IVIS® spectrum from PerkinElmer by taking the total photon flux of the entire dorsal side of an individual mouse. […] A background control mouse that was tumor naive but received D-Luciferin was placed in the upper left corner of each image. The total flux from this animal was subtracted from the total flux of each animal present in the image.
For in vivo studies, maximal tumor growth inhibition (TGI) was calculated as the greatest treatment response using the following equation: Maximal TGI = (1 − mean tumor volume of the treated group/mean tumor volume of the vehicle control group) × 100. The tumor growth delay (TGD) percentage was determined as the percentage increase of the median time period for the treatment group to reach an arbitrary tumor volume of 1000 mm^3 relative to the vehicle control group. […] A power analysis was conducted using historical data to determine the number of animals required to yield significance of 0.05 at a 30% difference. […] Data from experiments in vivo were analyzed using the student’s t-test for TGI values and the Mann–Whitney U test for TGD using Excel and GraphPad Prism. Fisher’s exact test was used to probe significance of differences in response frequency.

[1] = 25 mg/kg Q7Dx2 IV, Day 53, SCID-beige female mice
[2] = 25 mg/kg Q7Dx2 IV, Day 60, SCID-beige female mice
[3] = 25 mg/kg Q7Dx2 IV, SCID-beige female mice, Day 21
[4] = 25 mg/kg Q7Dx2 IV, SCID-beige female mice, Day 24
[5] = 25 mg/kg Q7Dx2 IV, SCID-beige female mice, Day 26
[6] = 25 mg/kg Q7Dx2 IV, SCID-beige female mice, Day 28
[7] = 25 mg/kg Q7Dx2 IV, SCID-beige female mice, Day 34, surviving animals
[8] = 25 mg/kg Q7Dx2 IV, SCID-beige female mice, Day 43
[9] = 25 mg/kg Q7Dx2 IV, SCID-beige female mice, Day 50
[10] = 25 mg/kg Q7Dx2 IV, SCID-beige female mice, Day 55, remaining animals
[11] = 25 mg/kg Q7Dx2 IV, SCID-beige female mice, Day 62
[12] = 25 mg/kg Q7Dx2 IV, SCID-beige female mice, Day 64
[13] = 25 mg/kg Q7Dx2 IV, SCID-beige female mice, Day 68
[14] = 25 mg/kg Q7Dx2 IV, SCID-beige female mice, Day 68, surviving animals
[15] = 25 mg/kg Q7Dx2 IV, SCID-beige mice, Day 13 (measure date 10/25/2017, dosing begin 10/26/2017)

Cc1c(Cl)c2c(Cl)c(C)c1-c1c(-c3ccc(F)cc3)sc3ncnc(c13)O[C@@H](C(=O)O)Cc1cc(ccc1OCc1ccnc(-c3ccc(OC[C@H]4COCCO4)cc3)n1)OC[C@@H](CN1CCN(C)CC1)O2 [Compound A-1747745.0]
Xenograft AMO-1 (DSMZ) (mm³) Day 34 Mean (6.25 mg/kg QDx1 IV, Day 34, group mean): 1592.98 mm³ | Xenograft AMO-1 (DSMZ) (mm³) Day 34 Median (6.25 mg/kg QDx1 IV, Day 34, group median): 1465.20 mm³ | Mortality Observation Day 34 (6.25 mg/kg QDx1 IV, Day 34, per animal): EUTV | Xenograft AMO-1 (DSMZ) (mm³) Day 36 (individual animals) (6.25 mg/kg QDx1 IV, Day 36, SCID-beige female mice, tumor volume per animal (remaining animals)): 1617 mm³ and 1642 mm³ and 1750 mm³ and 2010 mm³ | Xenograft AMO-1 (DSMZ) (mm³) Day 36, Mean (6.25 mg/kg QDx1 IV, Day 36, group mean of remaining animals): 1754.60 mm³ | Xenograft AMO-1 (DSMZ) (mm³) Day 36, Median (6.25 mg/kg QDx1 IV, Day 36, group median of remaining animals): 1695.89 mm³ | Mortality Observation Day 36 (6.25 mg/kg QDx1 IV, Day 36, per animal): EUTV | Mortality Observation Day 19 (25 mg/kg Q7Dx2 IV, AMO-1 xenograft, SCID-beige female mice, individual animals): MORB | % T/C (mean) (25 mg/kg Q7Dx2 IV, Day 13): 102.38% | % T/C (median) (25 mg/kg Q7Dx2 IV, Day 13): 100.76% | % T/C (mean) (25 mg/kg Q7Dx2 IV, Day 19): 6.47% | % T/C (median) (25 mg/kg Q7Dx2 IV, Day 19): 6.98% | % T/C (mean) (25 mg/kg Q7Dx2 IV, Day 21): 4.61% | % T/C (median) (25 mg/kg Q7Dx2 IV, Day 21): 4.91% | % T/C (mean) (25 mg/kg Q7Dx2 IV, Day 24): 1.88% | % T/C (median) (25 mg/kg Q7Dx2 IV, Day 24): 1.98% | % T/C (mean) (25 mg/kg Q7Dx2 IV, Day 26): 1.29% | % T/C (median) (25 mg/kg Q7Dx2 IV, Day 26): 1.46% | % T/C (mean) (25 mg/kg Q7Dx2 IV, Day 28): 0.52% | % T/C (median) (25 mg/kg Q7Dx2 IV, Day 28): 0.52% | Xenograft AMO-1 (DSMZ) (mm³) Day 53 (individual animals) [1]: 15 mm³ | Xenograft AMO-1 (DSMZ) (mm³) Day 53 Mean [1]: 15.19 mm³ | Xenograft AMO-1 (DSMZ) (mm³) Day 53 Median [1]: 15.19 mm³ | Xenograft AMO-1 (DSMZ) (mm³) Day 60 (individual animals) [2]: 155 mm³ and 71 mm³ | Xenograft AMO-1 (DSMZ) (mm³) Day 60, Mean [2]: 112.89 mm³ | Xenograft AMO-1 (DSMZ) (mm³) Day 60, Median [2]: 112.89 mm³ | Xenograft AMO-1 (DSMZ) Day 19 Mean (25 mg/kg Q7Dx2 IV, SCID-beige female mice, Day 19, group mean tumor volume): 25.56 mm³ | Xenograft AMO-1 (DSMZ) Day 19 Median (25 mg/kg Q7Dx2 IV, SCID-beige female mice, Day 19, group median tumor volume): 25.56 mm³ | Xenograft AMO-1 (DSMZ) (mm³) Day 19, individual animals (25 mg/kg Q7Dx2 IV, SCID-beige female mice, Day 19, individual tumor volumes): 18 mm³ and 33 mm³ and MORB | Mortality Observation Day 21, individual animals [3]: STOX (2×) and MORB (2×) | Xenograft AMO-1 (DSMZ) Day 21, Mean [3]: 29.76 mm³ | Xenograft AMO-1 (DSMZ) Day 21, Median [3]: 29.76 mm³ | Xenograft AMO-1 (DSMZ) tumor volume Day 21, individual animals [3]: 19 mm³ and 40 mm³ | Xenograft AMO-1 (DSMZ) (mm³) Day 24, individual animals [4]: 17 mm³ and 19 mm³ | Xenograft AMO-1 (DSMZ) tumor volume Day 24, Mean [4]: 17.90 mm³ | Xenograft AMO-1 (DSMZ) tumor volume Day 24, Median [4]: 17.90 mm³ | Xenograft AMO-1 (DSMZ) tumor volume Day 26, Mean [5]: 17.97 mm³ | Xenograft AMO-1 (DSMZ) tumor volume Day 26, Median [5]: 17.97 mm³ | Xenograft AMO-1 (DSMZ) tumor volume Day 26, individual animals [5]: 18 mm³ | Xenograft AMO-1 (DSMZ) (mm³) Day 28, individual animals [6]: 11 mm³ | Xenograft AMO-1 (DSMZ) Day 28 Mean [6]: 11.33 mm³ | Xenograft AMO-1 (DSMZ) Day 28 Median [6]: 11.33 mm³ | Xenograft AMO-1 (DSMZ) (mm³) Day 34, individual animal tumor volume (25 mg/kg Q7Dx2 IV, SCID-beige female mice, Day 34): 21 mm³ and 19 mm³ | Xenograft AMO-1 (DSMZ) (mm³) Day 34 Mean [7]: 20.16 mm³ | Xenograft AMO-1 (DSMZ) (mm³) Day 34 Median [7]: 20.16 mm³ | Xenograft AMO-1 (DSMZ) (mm³) Day 43, Mean [8]: 15.04 mm³ | Xenograft AMO-1 (DSMZ) (mm³) Day 43, Median [8]: 15.04 mm³ | Xenograft AMO-1 (DSMZ) (mm³) Day 43, individual animal tumor volume [8]: 15 mm³ | Xenograft AMO-1 (DSMZ) tumor volume Day 50, Mean [9]: 15.94 mm³ | Xenograft AMO-1 (DSMZ) tumor volume Day 50, Median [9]: 15.94 mm³ | Xenograft AMO-1 (DSMZ) tumor volume Day 50, individual animals [9]: 15 mm³ and 17 mm³ | Xenograft AMO-1 (DSMZ) tumor volume Day 55, individual animals (25 mg/kg Q7Dx2 IV, SCID-beige female mice, Day 55): 13 mm³ and 9 mm³ | Xenograft AMO-1 (DSMZ) tumor volume Day 55, Mean [10]: 10.76 mm³ | Xenograft AMO-1 (DSMZ) tumor volume Day 55, Median [10]: 10.76 mm³ | Xenograft AMO-1 (DSMZ) (mm³) Day 62 (individual animals) [11]: 198 mm³ and 12 mm³ | Xenograft AMO-1 (DSMZ) (mm³) Day 62, Mean [11]: 104.96 mm³ | Xenograft AMO-1 (DSMZ) (mm³) Day 62, Median [11]: 104.96 mm³ | Xenograft AMO-1 (DSMZ) (mm³) Day 64 (individual animals) [12]: 249 mm³ and 21 mm³ | Xenograft AMO-1 (DSMZ) (mm³) Day 64, Mean [12]: 134.75 mm³ | Xenograft AMO-1 (DSMZ) (mm³) Day 64, Median [12]: 134.75 mm³ | Mortality Observation Day 68, individual animal [13]: EUTV | Xenograft AMO-1 (DSMZ) (mm³) Day 68, individual animal tumor volume [13]: 1794 mm³ and 24 mm³ | Xenograft AMO-1 (DSMZ) (mm³) Day 68, Mean [14]: 908.91 mm³ | Xenograft AMO-1 (DSMZ) (mm³) Day 68, Median [14]: 908.91 mm³ | Xenograft AMO-1 (DSMZ) tumor volume Day 13, Mean [15]: 225.47 mm³ | Xenograft AMO-1 (DSMZ) tumor volume Day 13, Median [15]: 225.47 mm³ | Xenograft AMO-1 (DSMZ) tumor volume Day 13, individual animals [15]: 233 mm³ and 218 mm³ | Xenograft AMO-1 (DSMZ) (mm³) Day 40, Mean (25 mg/kg Q7Dx2 IV, SCID-beige mice, Day 40, group mean of remaining animals): 7.70 mm³ | Xenograft AMO-1 (DSMZ) (mm³) Day 40, Median (25 mg/kg Q7Dx2 IV, SCID-beige mice, Day 40, group median of remaining animals): 7.70 mm³ | Xenograft AMO-1 (DSMZ) (mm³) Day 40, individual animal (25 mg/kg Q7Dx2 IV, SCID-beige mice, Day 40, tumor volume of single animals): 8 mm³ | Xenograft AMO-1 (DSMZ) Day 57, Mean (25 mg/kg Q7Dx2 IV, SCID-beige mice, Day 57, group mean of remaining animals): 13.23 mm³ | Xenograft AMO-1 (DSMZ) Day 57, Median (25 mg/kg Q7Dx2 IV, SCID-beige mice, Day 57, group median of remaining animals): 13.23 mm³ | Xenograft AMO-1 (DSMZ) (mm³) Day 36, Mean (25 mg/kg Q7Dx2 IV, group mean of remaining animals, SCID-beige mice, Day 36): 10.51 mm³ | Xenograft AMO-1 (DSMZ) (mm³) Day 32 Mean (25 mg/kg Q7Dx2 IV, group mean tumor volume, Day 32): 48.75 mm³ | Xenograft AMO-1 (DSMZ) (mm³) Day 36, Median (25 mg/kg Q7Dx2 IV, group median of remaining animals, SCID-beige mice, Day 36): 10.51 mm³ | Xenograft AMO-1 (DSMZ) (mm³) Day 32 Median (25 mg/kg Q7Dx2 IV, group median tumor volume, Day 32): 48.75 mm³ | Xenograft AMO-1 (DSMZ) (mm³) Day 32 (25 mg/kg Q7Dx2 IV, individual animal tumor volume, Day 32): 94 mm³ and 4 mm³ | Xenograft AMO-1 (DSMZ) (mm³) Day 36 (25 mg/kg Q7Dx2 IV, individual animal tumor volume, SCID-beige mice, Day 36): 11 mm³
